From patent US20210154188A1, “ALK5 INHIBITORS, CONJUGATES, AND USES THEREOF” (SILVERBACK THERAPEUTICS, INC., priority 2018, published 2021)

Legend:
ALK5 = target: T1, ALK5 (Homo sapiens, UniProt P36897); test: ALK5 enzyme inhibition assay (33P-ATP filter-binding, Reaction Biology Corp); type: biochemical; settings: casein substrate 1 mg/mL, 10 uM ATP
T1 construct: purchased Reaction Biology Corp (Malvern, PA)
T1 sequence (P36897 34-503): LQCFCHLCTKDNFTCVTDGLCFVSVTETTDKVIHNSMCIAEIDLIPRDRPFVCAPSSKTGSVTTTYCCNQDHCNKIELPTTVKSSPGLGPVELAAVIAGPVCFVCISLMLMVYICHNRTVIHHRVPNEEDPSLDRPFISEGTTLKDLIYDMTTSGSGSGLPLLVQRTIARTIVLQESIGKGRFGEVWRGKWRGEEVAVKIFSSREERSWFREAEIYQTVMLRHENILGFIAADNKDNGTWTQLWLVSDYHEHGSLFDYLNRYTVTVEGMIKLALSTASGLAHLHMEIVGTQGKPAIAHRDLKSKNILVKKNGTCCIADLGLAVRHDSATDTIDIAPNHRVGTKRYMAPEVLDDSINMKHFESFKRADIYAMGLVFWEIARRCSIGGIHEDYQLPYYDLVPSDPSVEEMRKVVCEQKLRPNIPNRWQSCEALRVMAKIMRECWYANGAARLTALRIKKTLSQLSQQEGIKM
Protocol: ALK5 enzyme inhibition assays were performed by Reaction Biology Corp (Malvern, PA). 1 mg/mL of peptide subtrate (casein) and 10 uM ATP were prepared in a mixture of fresh reaction buffer. The kinase was delivered into the substrate solution which was gently mixed. Compounds in 100% DMSO were added to the kinase reaction mixture by Acoustic technology (Echo550; nanoliter range) and the mixture was incubated for 20 min at room temperature. ^33P-ATP (Specific activity 10 uCi/uL) was added into the reaction mixture to initiate the reaction and the reaction mixture was incubated for 2 hours at room temperature. Radioactivity was detected by filter-binding method and kinase activity data were expressed as the percent remaining kinase activity in test samples compared to vehicle (dimethyl sulfoxide) reactions. IC50 values and curve fits were obtained using Prism (GraphPad Software).

[1] = test system: TGFb/SMAD Signaling Pathway SBE reporter cell line; test: TGFb reporter assay (luciferase); type: cell-based; settings: 5-6 h preincubation, then TGFb, 18 h, luminescence
Protocol: TGFb/SMAD Signaling Pathway SBE reporter cell line was obtained from BPS Bioscience. Cells were passed/expanded/stored in liquid nitrogen per supplier's instruction with the exception that growth media was changed to DMEM-C with Geneticin (DMEM supplemented with 10% fetal bovine serum, 1× NEAA, 1 mM Pyruvate, 2 mM glutamine, 50 μg/mL penicillin, 50 U/mL streptomycin and 400 ug/mL of Geneticin). The assay media was MEM supplemented with 0.5% fetal bovine serum, 1× NEAA, 1 mM Pyruvate, 50 μg/mL penicillin and 50 U/mL streptomycin.
Reporter cells were harvested from the tissue culture flasks by incubation in small quantity of Versene at room temperature for three to five minutes after the media in the flask was removed and cells rinsed with PBS. Cells were counted and diluted in the assay media at ˜0.8×10^6 cells/mL then 50 uL/well were added to 96-well assay plate. Test samples (at desired concentrations diluted in assay media) were added to assay plate containing the 50 uL/well of cells (or media only), 50 uL per well, and incubated for 5-6 hours at 37° C. in a 5% CO2 humidified incubator. After that time, 15 uL of TGFb diluted to 12.5 ng/mL in the assay media was added to the plate. Controls included TGFb titration (from 25 to 0 ng/mL) without inhibitors, and media only (without cells, inhibitor or TGFb). Plates were incubated at 37° C. in a 5% CO2 humidified incubator for 18 h. Luciferase substrate solution was subsequently added at 75 uL per well, incubated in dark with shaking at room temperature for 10 min, and luminescence was measured using a luminometer.

| Structure (SMILES) | IC50 (ALK5) [µM] | IC50 [1] [µM] |
| --- | --- | --- |
| Cc1cccc(-c2nc(CNC3CCCCCC3)[nH]c2-c2ccc3ncnn3c2)n1 [Compound 1.13, 1-(5-([1,2,4]triazolo[1,5-a]pyridin-6-yl)-4-(6-methylpyridin-2-yl)-1H-imidazol-2-yl)-N-(cycloheptyl)methanamine] | 0.1 to 1 | 0.01 to 0.1 |
| Cc1cccc(-c2nc(CN3Cc4ccccc4C3=O)[nH]c2-c2ccc3ncnn3c2)n1 [Compound 1.56, 2-((5-([1,2,4]triazolo[1,5-a]pyridin-6-yl)-4-(6-methylpyridin-2-yl)-1H-imidazol-2-yl)methyl)isoindolin-1-one] | 0.1 to 1 | 0.01 to 0.1 |
| Cc1cccc(-c2nc(CNC3CCOCC3)[nH]c2-c2ccc3ncnn3c2)n1 [Compound 1.14, 1-(5-([1,2,4]triazolo[1,5-a]pyridin-6-yl)-4-(6-methylpyridin-2-yl)-1H-imidazol-2-yl)-N-(4-tetrahydropyranyl)methanamine] | 0.1 to 1 | 0.01 to 0.1 |
| Cc1cccc(-c2nc(CNc3ccc4c(c3)C(N)CC4)[nH]c2-c2ccc3ncnn3c2)n1 (stereo not drawn) [Compound 1.21, N6-((5-([1,2,4]triazolo[1,5-a]pyridin-6-yl)-4-(6-methylpyridin-2-yl)-1H-imidazol-2-yl)methyl)-2,3-dihydro-1H-indene-1,6-diamine] | – | 0.1 to 1 |
| Cc1cccc(-c2nc(CNC3CCC3)[nH]c2-c2ccc3ncnn3c2)n1 [Compound 1.10, 1-(5-([1,2,4]triazolo[1,5-a]pyridin-6-yl)-4-(6-methylpyridin-2-yl)-1H-imidazol-2-yl)-N-(cyclobutyl)methanamine] | 1 to 10 | 0.1 to 1 |
| Cc1cccc(-c2nc(CNC3CCCC3)[nH]c2-c2ccc3ncnn3c2)n1 [Compound 1.11, 1-(5-([1,2,4]triazolo[1,5-a]pyridin-6-yl)-4-(6-methylpyridin-2-yl)-1H-imidazol-2-yl)-N-(cyclopentyl)methanamine] | 0.1 to 1 | 0.01 to 0.1 |
| Cc1cccc(-c2nc(CN3CCCCC3)[nH]c2-c2ccn3ncnc3c2)n1 [Compound 1.35, 7-(4-(6-methylpyridin-2-yl)-2-(piperidin-1-ylmethyl)-1H-imidazol-5-yl)-[1,2,4]triazolo[1,5-a]pyridine] | 1 to 10 | 0.1 to 1 |
| Cc1cccc(-c2nc(C3CCNC3)[nH]c2-c2ccc3ncnn3c2)n1 (stereo not drawn) [Compound 1.50, 6-(4-(6-methylpyridin-2-yl)-2-(pyrrolidin-3-yl)-1H-imidazol-5-yl)-[1,2,4]triazolo[1,5-a]pyridine] | – | 0.1 to 1 |
| Cc1cccc(-c2nc(CNC3CCCCC3)[nH]c2-c2ccc3ncnn3c2)n1 [Compound 1.12, 1-(5-([1,2,4]triazolo[1,5-a]pyridin-6-yl)-4-(6-methylpyridin-2-yl)-1H-imidazol-2-yl)-N-(cyclohexyl)methanamine] | 0.1 to 1 | 0.01 to 0.1 |
| Cc1cccc(-c2nc(CN[C@H]3c4ccccc4C[C@H]3O)[nH]c2-c2ccc3ncnn3c2)n1 [Compound 1.43, (1S,2R)-1-(((5-([1,2,4]triazolo[1,5-a]pyridin-6-yl)-4-(6-methylpyridin-2-yl)-1H-imidazol-2-yl)methyl)amino)-2,3-dihydro-1H-inden-2-ol] | 0.01 to 0.1 | 0.01 to 0.1 |
| Cc1cccc(-c2nc(CNc3ccc4c(c3)CCC4N)[nH]c2-c2ccc3ncnn3c2)n1 (stereo not drawn) [Compound 1.5, N^5-((5-([1,2,4]triazolo[1,5-a]pyridin-6-yl)-4-(6-methylpyridin-2-yl)-1H-imidazol-2-yl)methyl)-2,3-dihydro-1H-indene-1,5-diamine] | – | 0.1 to 1 |
| CC(=O)NC1Cc2cccc(NCc3nc(-c4cccc(C)n4)c(-c4ccc5ncnn5c4)[nH]3)c2C1 (stereo not drawn) [Compound 1.23, N-(4-(((5-([1,2,4]triazolo[1,5-a]pyridin-6-yl)-4-(6-methylpyridin-2-yl)-1H-imidazol-2-yl)methyl)amino)-2,3-dihydro-1H-inden-2-yl)acetamide] | – | 0.1 to 1 |
| Cc1cccc(-c2nc(CNc3cccc4c3C(N)CC4)[nH]c2-c2ccc3ncnn3c2)n1 (stereo not drawn) [Compound 1.20, N7-((5-([1,2,4]triazolo[1,5-a]pyridin-6-yl)-4-(6-methylpyridin-2-yl)-1H-imidazol-2-yl)methyl)-2,3-dihydro-1H-indene-1,7-diamine] | – | 0.1 to 1 |
| Cc1cccc(-c2nc(C3CN(C(=O)OC(C)(C)C)C3)[nH]c2-c2ccc3ncnn3c2)n1 [Compound 1.52, tert-butyl 3-(5-([1,2,4]triazolo[1,5-a]pyridin-6-yl)-4-(6-methylpyridin-2-yl)-1H-imidazol-2-yl)azetidine-1-carboxylate] | – | 0.1 to 1 |
| Cc1cccc(-c2nc(C3CCN(C(=O)OC(C)(C)C)C3)[nH]c2-c2ccc3ncnn3c2)n1 (stereo not drawn) [Compound 1.51, tert-butyl 3-(5-([1,2,4]triazolo[1,5-a]pyridin-6-yl)-4-(6-methylpyridin-2-yl)-1H-imidazol-2-yl)pyrrolidine-1-carboxylate] | – | 0.1 to 1 |
| Cc1cccc(-c2nc(CNC3CCCOC3)[nH]c2-c2ccc3ncnn3c2)n1 (stereo not drawn) [Compound 1.15, 1-(5-([1,2,4]triazolo[1,5-a]pyridin-6-yl)-4-(6-methylpyridin-2-yl)-1H-imidazol-2-yl)-N-(3-tetrahydropyranyl)methanamine] | – | 0.01 to 0.1 |
| Cc1cccc(-c2nc(C34CCC(N)(CC3)CC4)[nH]c2-c2ccc3ncnn3c2)n1 [Compound 1.55, 4-(5-([1,2,4]triazolo[1,5-a]pyridin-6-yl)-4-(6-methylpyridin-2-yl)-1H-imidazol-2-yl)bicyclo[2.2.2]octan-1-amine] | – | 1 to 10 |
| Cc1cccc(-c2nc(CNC3CCNCC3)[nH]c2-c2ccn3ncnc3c2)n1 [Compound 1.39, N-((5-([1,2,4]triazolo[1,5-a]pyridin-7-yl)-4-(6-methylpyridin-2-yl)-1H-imidazol-2-yl)methyl)piperidin-4-amine] | – | 1 to 10 |
| Cc1cccc(-c2nc(C3CCCNC3)[nH]c2-c2ccc3ncnn3c2)n1 (stereo not drawn) [Compound 1.48, 6-(4-(6-methylpyridin-2-yl)-2-(piperidin-3-yl)-1H-imidazol-5-yl)-[1,2,4]triazolo[1,5-a]pyridine] | – | 0.1 to 1 |
| Cc1cccc(-c2nc(CNc3cccc4c3CCC4N)[nH]c2-c2ccc3ncnn3c2)n1 (stereo not drawn) [Compound 1.6, N^4-((5-([1,2,4]triazolo[1,5-a]pyridin-6-yl)-4-(6-methylpyridin-2-yl)-1H-imidazol-2-yl)methyl)-2,3-dihydro-1H-indene-1,4-diamine] | – | 0.1 to 1 |
| Cc1cccc(-c2nc(CNC34CC(C3)C4)[nH]c2-c2ccc3ncnn3c2)n1 [Compound 1.9, N-((5-([1,2,4]triazolo[1,5-a]pyridin-6-yl)-4-(6-methylpyridin-2-yl)-1H-imidazol-2-yl)methyl)bicyclo-[1.1.1]pentan-1-amine] | – | 0.01 to 0.1 |
| Cc1cccc(-c2nc(C3CNC3)[nH]c2-c2ccc3ncnn3c2)n1 [Compound 1.53, 6-(2-(azetidin-3-yl)-4-(6-methylpyridin-2-yl)-1H-imidazol-5-yl)-[1,2,4]triazolo[1,5-a]pyridine] | – | 1 to 10 |
| Cc1cccc(-c2nc(CNC3CCCNC3)[nH]c2-c2ccn3ncnc3c2)n1 (stereo not drawn) [Compound 1.38, N-((5-([1,2,4]triazolo[1,5-a]pyridin-7-yl)-4-(6-methylpyridin-2-yl)-1H-imidazol-2-yl)methyl)piperidin-3-amine] | – | 1 to 10 |
| Cc1cccc(-c2nc(CNC3CCCCC3C)[nH]c2-c2ccc3ncnn3c2)n1 (stereo not drawn) [Compound 1.16, 1-(5-([1,2,4]triazolo[1,5-a]pyridin-6-yl)-4-(6-methylpyridin-2-yl)-1H-imidazol-2-yl)-N-(2-methylcyclohexyl)methanamine] | – | 0.01 to 0.1 |
| Cc1cccc(-c2nc(C3CCCCN3)[nH]c2-c2ccc3ncnn3c2)n1 (stereo not drawn) [Compound 1.49, 6-(4-(6-methylpyridin-2-yl)-2-(piperidin-2-yl)-1H-imidazol-5-yl)-[1,2,4]triazolo[1,5-a]pyridine] | – | 0.1 to 1 |
